Data published in patent US20080275111A1, “Novel Use of Lignan Compounds” (priority 2005, published 2008).

Experiments:
[1] = tested on: TNF-α; test: TNF-α production in LPS-activated microglia (ELISA); type: cell-based, rat; conditions: 1 μg/ml LPS, compound 2.5 and 10 μM, 24 hours
Description: When the microglia is activated by LPS, it synthesizes and secretes various pro-inflammatory cytokines such as IL-1, IL-6 and TNF-α (Chen, S. Neurobiol. Aging, 17:781-787, 1996). Therefore, in order to examine the anti-inflammatory effect of the lignan compound of the present invention, the effect of the lignan compound of the present invention on the production of IL-6 and TNF-α in the activated microglia. First, only the neocortex was isolated from the brain of 1 day-old rat. Then, a microglia-astroglia mixture was prepared according to a method known in the art (Kim, H. Y. et al., J. Immunol., 171:6072-6079, 2003). […] Then, the amount of IL-6 and TNF-α secreted into the cell cultured medium was measured with the solid-phase ELISA system (RPN2742 for IL-6, RPN2744 for TNF-α, Amersham Bioscience). For this analysis, 50 μl of the supernatant of the cultured medium of microglia and 50 μl of the standard of each material (purely isolated and quantified IL-6 or TNF-α) were added into a 96-well plate coated with an antibody specific to mouse IL-6 and TNF-α. […] Then, 100 μl of a stop solution (Amersham Bioscience) was added into each well to stop the reaction, and the absorbance of the solution in each well was measured with a microreader at 450 nm. […]

[2] = tested on: NO; test: NO production in LPS-activated microglia (Griess reagent); type: cell-based, mouse; conditions: 1 μg/ml LPS
Procedure: When the microglia is activated, the expression of NO as a mediator of nerve transmission and immune response is induced (Liu, B. et al., Ann. N.Y. Acad. Sci., 962:318-331, 2002). Therefore, the effect of the lignan compound of the present invention on the NO production in microglia was examined. First, only the neocortex was isolated from the brain of 1 day-old mouse. Then, a microglia-astroglia mixture was prepared according to a method known in the art (Kim, H. Y. et al., J. Immunol., 171:6072-6079, 2003). The microglia-astroglia mixture was then divided at a ratio of 4 flasks/1 head and cultured in MEM medium containing 10% FBS in a 75 cm^2 flask for 2 weeks. The microglia was separated from the cultured cells and cultured in MEM medium containing 5% FBS for 24 hours. The tissue-cultured microglia was inoculated into MEM medium containing 5% FBS at a concentration of 1.5×10^4 cells/well and cultured in a 96-well plate. After 1 day of cultivation, the microglia was treated with 1 μg/ml of LPS (Sigma) to induce activation of the microglia. […] Then, the cell-cultured medium was collected and NO production was measured. The NO production was analyzed by measuring the amount of nitrite as a stable metabolite of NO in the cell-cultured medium using Griess reagent kit (Molecular Probe). […] Then, the absorbance of the resulting solution was measured with a microplate reader at 548 nm.

SMILES: COc1cc(C[C@H](C)[C@H](C)Cc2ccc3c(c2)OCO3)ccc1O [macelignan, (8R,8′S)-7-(3,4-methylenedioxyphenyl)-7′-(4-hydroxy-3-methoxyphenyl)-8,8′-dimethylbutane]
- production of TNF-α induced by LPS [1]: dose-dependently inhibited
- NO production induced by LPS ([2]; compound 2.5 and 10 μM, 16 or 24 hours): dose-dependently inhibited
- inhibition at 10 µM ([2]; Mus musculus, 10 μM compound, read-out: inhibition rate of NO production): ~90%
